Laboratory results as given in PubChem BioAssay (NCI).
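Cultured in 96-well plates, cells were exposed to test compound for 48 hours across five concentrations. Definition used: TGI = concentration required for complete inhibition of growth.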

Experiments:
Test in all cases: DTP human tumour cell line panel, 48 h
CAKI-1 renal = test system: CAKI-1 renal
OVCAR-3 ovarian = test system: OVCAR-3 ovarian
HOP-92 NSCLC = test system: HOP-92 NSCLC
SNB-19 CNS = test system: SNB-19 CNS
COLO 205 colon = test system: COLO 205 colon
SN12C renal = test system: SN12C renal
SR leukemia = test system: SR leukemia
HCT-15 colon = test system: HCT-15 colon
PC-3 prostate = test system: PC-3 prostate
M14 melanoma = test system: M14 melanoma
NCI-H460 lung = test system: NCI-H460 lung
SF-539 CNS = test system: SF-539 CNS
MALME-3M melanoma = test system: MALME-3M melanoma
IGROV1 ovarian = test system: IGROV1 ovarian
T-47D breast = test system: T-47D breast
UO-31 renal = test system: UO-31 renal
MOLT-4 leukemia = test system: MOLT-4 leukemia
HL-60(TB) leukemia = test system: HL-60(TB) leukemia
NCI-H23 lung = test system: NCI-H23 lung
SF-268 CNS = test system: SF-268 CNS

Row | SMILES | TGI (CAKI-1 renal) [µM] | TGI (OVCAR-3 ovarian) [µM] | TGI (HOP-92 NSCLC) [µM] | TGI (SNB-19 CNS) [µM] | TGI (COLO 205 colon) [µM] | TGI (SN12C renal) [µM] | TGI (SR leukemia) [µM] | TGI (HCT-15 colon) [µM] | TGI (PC-3 prostate) [µM] | TGI (M14 melanoma) [µM] | TGI (NCI-H460 lung) [µM] | TGI (SF-539 CNS) [µM] | TGI (MALME-3M melanoma) [µM] | TGI (IGROV1 ovarian) [µM] | TGI (T-47D breast) [µM] | TGI (UO-31 renal) [µM] | TGI (MOLT-4 leukemia) [µM] | TGI (HL-60(TB) leukemia) [µM] | TGI (NCI-H23 lung) [µM] | TGI (SF-268 CNS) [µM]
1 | C/C=C(\C)C(O)C(C)C(O)C/C=C(C)/C=C(\C)C/C(C)=C/C/C=C(\C)C(O)C(C)c1ccc(CCC)c(=O)o1 (stereo not given) | 31.8 | 27.8 | 44 | 42.3 | 16.8 | 46.2 | > 100 | 15.3 | 21.3 | 28.4 | 22.7 | 28.2 | 27.1 | 32.8 | 65.4 | 21 | > 100 | > 100 | 26.1 | 37.5
2 | COc1cc(NCCC2CCCCN2)c2ncccc2c1 (stereo not given) | > 100 | > 62.7 | > 100 | > 100 | 28.6 | > 77.2 | > 81.3 | > 100 | > 100 | 44.9 | > 100 | > 100 | > 57.6 | > 100 | 4.83 | > 100 | > 68.6 | 19.1 | > 100 | > 100
3 | O=C1C2=C(CC3=C(C2)CS(=O)(=O)C3)C(=O)C2=C1CC1=C(C2)CS(=O)(=O)C1 | > 69.5 | 9.03 | > 77.7 | 35.5 | 35.7 | 30.2 | 18.6 | > 100 | 51.6 | > 54.9 | > 100 | > 75.2 | 19.2 | 36.5 | 8.66 | > 63.4 | > 65.6 | 22 | 48.4 | > 47.7
4 | CC[C@@]1(C)CCC2c3ccc(O)cc3CC[C@H]2C1C (stereo not given in full) | 35.7 | 37 | 19.5 | 32.1 | 35.1 | 34.3 | 31.6 | 31.4 | 34 | 30.3 | 40.6 | 35.4 | 30.5 | 38.1 | 39.3 | 30.4 | 32.5 | 29 | 36.2 | 30.1
5 | COC(=O)c1cc(C(=CCC[C@H]2CC[C@@]3(C)C(CCC4C3CC[C@@]3(C)C4CC[C@@H]3C(C)CCCC(C)C)C2)c2cc(Cl)c(O)c(C(=O)OC)c2)cc(Cl)c1O (stereo not given in full) | > 10 | > 10 | > 10 | > 10 | > 10 | > 10 | > 10 | > 10 | > 10 | > 10 | > 10 | > 10 | > 10 | > 10 | > 10 | > 10 | > 10 | > 10 | > 10 | > 10
6 | NC(Cc1ccc(N(CCCl)CCCl)cc1)C(=O)NC(CCC(=O)O)C(=O)O (stereo not given) | > 100 | > 100 | > 100 | > 100 | > 100 | > 100 | > 100 | > 100 | > 100 | > 100 | > 100 | > 100 | > 100 | > 100 | > 100 | > 100 | > 100 | > 100 | > 100 | > 100
7 | CS(=O)(=O)c1ccc(N=C/C=C/Nc2ccc(S(C)(=O)=O)cc2)cc1 | > 100 | > 100 | > 100 | > 100 | > 100 | > 100 | > 100 | > 100 | > 100 | > 100 | > 100 | > 100 | > 100 | > 100 | > 100 | > 100 | > 100 | > 100 | > 100 | > 100
8 | CN(C)C(c1ccccc1)C1COC2Cc3ccccc3C1O2 (stereo not given) | > 100 | > 100 | > 100 | > 100 | > 100 | > 100 | > 100 | > 100 | > 100 | > 100 | > 100 | > 100 | > 100 | > 100 | > 100 | > 100 | > 100 | > 100 | > 100 | > 100
